Earlier results as cited in patent publication US20030175349A1, “Pharmaceutical compostion for extended/sustained release of a therapeutically active ingredient” (COUNCIL OF SCIENTIFIC AND INDUSTRIAL RESEARCH, priority 2002, published 2003).

Compound	solubility in water (in words)	parts of water in which 1 part is soluble (at 20° C.)
Cc1ccc(S(=O)(=O)NC(=O)NN2CC3CCCC3C2)cc1 (stereo not drawn) [Gliclazide, gliclazide]	practically insoluble in water	
CC(=O)OCC(COC(C)=O)OC(C)=O [triacetin]		14 parts of water
CC(=O)Oc1ccccc1C(=O)O [Aspirin, aspirin]	slightly soluble in water	
